Assay results: patent US8242166B2, “C(10) ethyl ester and C(10) cyclopropyl ester substituted taxanes” (Florida State University Research Foundation, Inc., priority 2008, dated 2012)
pIC50: −log10 of the molar value. Values joined by “and” are separate entries in the source; they are usually repeats but may differ in a detail not shown here. Equal entries are not always repeated. Where two headings read alike, the source gives them in different places.

What was measured:
[1] = tested on: HCT116; assay: MTT cytotoxicity (IC50), HCT116; format: cell-based; settings: Homo sapiens, HCT-116, 72 h, read-out: IN Vitro IC50 (nm) HCT116
Experimental: (§1) All cell lines were maintained in RPMI-1640 tissue culture medium (TCM, supplemented with antibiotics and 10% fetal bovine serum) and cultured at 37° C. in humidified air containing 5% CO2. To assess the antiproliferative effects of the test compounds, 172 μL of tumor cell suspension (1.45×10^4 cells/ml) were added to each well of a 96-well plate and incubated for 24 h at 37° C. in 5% CO2 in air to allow cells to adhere. Seven 2-fold drug dilutions in TCM/DMSO were performed in triplicate in separate 96-well plates and 28 μL was transferred to the wells containing tumor cells (200 μL final volume/0.1% DMSO). Plates were incubated for 72 h and cell viability was determined by adding 50 μL of warm TCM containing 5 mg/mL MTT (3-[4,5-dimethylthiazol-2-yl]-2,5-diphenyltetrazolium bromide) to each well and incubating for 1 h at 37° C. Plates were processed and the absorbances of the resulting solutions were measured by a plate reader at 570 nm. […] (GraphPad Prism version 4.00 for Windows). Studies were conducted by Taxolog, Inc., Tallahassee, Fla.

[2] = tested on: DLD-1; assay: MTT cytotoxicity (IC50), DLD-1; format: cell-based; settings: Homo sapiens
Experimental: as §1, with “Compound 17932 was tested in four of these cell lines, while the remaining compounds were tested in all of these cell lines. All” for “All”

[3] = tested on: HT29; assay: MTT cytotoxicity (IC50), HT29; format: cell-based; settings: Homo sapiens, HT-29, 72 h, read-out: IN Vitro IC50 (nm) HT29
Experimental: as §1, with “Compound 17932 was tested in four of these cell lines, while the remaining compounds were tested in all of these cell lines. All” for “All”

[4] = tested on: 786-0; assay: MTT cytotoxicity (IC50), 786-0; format: cell-based; settings: Homo sapiens
Experimental: as §1, with “Compound 17932 was tested in four of these cell lines, while the remaining compounds were tested in all of these cell lines. All” for “All”

[5] = tested on: TK-10; assay: MTT cytotoxicity (IC50), TK-10; format: cell-based; settings: Homo sapiens, 72 h, read-out: IN Vitro IC50 (nm) TK10
Experimental: as §1, with “Compound 17932 was tested in four of these cell lines, while the remaining compounds were tested in all of these cell lines. All” for “All”

[6] = tested on: OVCAR4; assay: MTT cytotoxicity (IC50), OVCAR4; format: cell-based; settings: Homo sapiens, OVCAR-4, 72 h, read-out: IN Vitro IC50 (nm) OVCAR4
Experimental: as §1, with “Compound 17932 was tested in four of these cell lines, while the remaining compounds were tested in all of these cell lines. All” for “All”

[7] = tested on: HOP-18; assay: MTT cytotoxicity (IC50), HOP-18; format: cell-based; settings: Homo sapiens, 72 h, read-out: IN Vitro IC50 (nm) HOP18
Experimental: as §1, with “Compound 17932 was tested in four of these cell lines, while the remaining compounds were tested in all of these cell lines. All” for “All”

[8] = tested on: SNB-19; assay: MTT cytotoxicity (IC50), SNB-19; format: cell-based; settings: Homo sapiens, 72 h, read-out: IN Vitro IC50 (nm) SNB19
Experimental: as §1, with “Compound 17932 was tested in four of these cell lines, while the remaining compounds were tested in all of these cell lines. All” for “All”

[9] = tested on: HT29 human tumor xenografts; assay: HT29 xenograft study e212, oral and i.v. (Example 26); settings: 25 mg/kg iv qwk × 3
From the text: The formulation for oral studies was an ethanol and Cremophor formulation while the formulation for compound 18365 and compound 19244 dosed i.v. was 5% ethanol and 95% Liposyn II 20%.

[10] = tested on: human A375 melanoma xenograft; assay: A375 xenograft study e209 (Example 27); settings: 25 mg/kg iv qwk × 3
Experimental: The endpoint was a tumor volume of 2,000 mm^3 and the study was terminated on Day 56. Efficacy was assessed by tumor growth delay and the number of partial and complete regressions. Animals with a CR that persisted through Day 56 were classified as long-term tumor-free survivors (TFS).

[11] = tested on: human MX-1 breast carcinoma; assay: MX1 xenograft study e219R1, i.v. single dose (Example 17)

Question: With `CC(=O)O[C@@]12CO[C@@H]1C[C@H](O)[C@@]1(C)C(=O)[C@H](O)C3=C(C)[C@@H](OC(=O)[C@H](O)[C@@H](NC(=O)OC(C)(C)C)c4ccccc4)C[C@@](O)([C@@H](OC(=O)c4ccccc4)[C@H]21)C3(C)C` [Docetaxel, docetaxel, reference compound] as the compound, how does the pIC50 [1] read?
Answer: Its pIC50 is 9.05.

Question: What about the pIC50 ([2]; MTT, 72 h, read-out: IN Vitro IC50 (nm) DLD1) of the same compound?
Answer: The pIC50 was less than 8.00.

Question: What about the pIC50 ([2]; Resistance MDR1+, read-out: DLD1 Colon (Table 4, quantity not named; IC50 values as Table 2)) of the same compound?
Answer: Its pIC50 is 7.70.

Question: And the pIC50 [3]?
Answer: Its pIC50 is 8.89.

Question: And the pIC50 ([4]; MTT, 72 h, read-out: IN Vitro IC50 (nm) 786-0)?
Answer: Its pIC50 is 8.21.

Question: What about the pIC50 ([4]; Resistance MDR1+, read-out: 786-0 Renal (Table 4, quantity not named; IC50 values as Table 2)) of the same compound?
Answer: Its pIC50 is 8.21.

Question: What about the pIC50 [5] of the same compound?
Answer: The pIC50 was 8.85.

Question: And the pIC50 [6]?
Answer: The pIC50 was 8.85.

Question: And the pIC50 [7]?
Answer: The pIC50 was 8.47.

Question: And the pIC50 [8]?
Answer: Its pIC50 is 8.72.

Question: And the “CR (complete regression)” value ([9]; n=6)?
Answer: Its value is 0.

Question: What about the “NTR NTRm” value ([9]; n=6) of the same compound?
Answer: The value was 0.

Question: What about the “PR (partial regression)” value ([9]; n=6) of the same compound?
Answer: The value was 3.

Question: And the “TFS (tumor-free survivor)” value ([9]; n=6)?
Answer: Its value is 0.

Question: And the “TR (treatment-related death)” value ([9]; n=6)?
Answer: The value was 0.

Question: And the “% TGD” value ([9]; vehicle ET)?
Answer: Its value is 237.14%.

Question: And the “MTV (n), Day 59” value ([9]; vehicle ET)?
Answer: The value was 600.00 (6) mm^3.

Question: What about the “Median TTE” value ([9]; vehicle ET) of the same compound?
Answer: Its value is 59 days.

Question: And the T-C ([9]; vehicle ET)?
Answer: Its T-C is 41.5 days.

Question: And the “BW Nadir” value [10]?
Answer: Its value is −4.0% (25).

Question: And the “CR (complete regression)” value ([10]; n=6)?
Answer: Its value is 0.

Question: What about the “NTR NTRm” value ([10]; n=6) of the same compound?
Answer: Its value is 0.

Question: And the “PR (partial regression)” value ([10]; n=6)?
Answer: Its value is 0.

Question: And the “TFS (tumor-free survivor)” value ([10]; n=6)?
Answer: Its value is 0.

Question: And the “TR (treatment-related death)” value ([10]; n=6)?
Answer: The value was 0.

Question: What about the “% TGD” value ([10]; vehicle ET) of the same compound?
Answer: The value was 49.06%.

Question: What about the “Median TTE” value ([10]; vehicle ET) of the same compound?
Answer: The value was 26.92 days.

Question: And the “T-C (tumor growth delay)” value ([10]; vehicle ET, listed as 2)?
Answer: Its value is 8.9 days and 8.86 days.

Question: And the “% TGD” value ([11]; 25 mg/kg iv qd × 1)?
Answer: The value was 89.79%.

Question: And the “BW Nadir” value ([11]; 25 mg/kg iv qd × 1)?
Answer: Its value is −10.2% (5).

Question: What about the “MTV (n), Day 60” value ([11]; 25 mg/kg iv qd × 1) of the same compound?
Answer: Its value is 0.00 (5) mm^3.

Question: And the “Median TTE” value ([11]; 25 mg/kg iv qd × 1)?
Answer: The value was 61 days.

Question: What about the T-C ([11]; 25 mg/kg iv qd × 1) of the same compound?
Answer: Its T-C is 28.86 days.

Question: What about the “CR (complete regression)” value ([11]; 25 mg/kg iv qd × 1, n=5) of the same compound?
Answer: The value was 5.

Question: What about the “NTR (non-treatment-related death)” value ([11]; 25 mg/kg iv qd × 1, n=5) of the same compound?
Answer: The value was 0.

Question: What about the “PR (partial regression)” value ([11]; 25 mg/kg iv qd × 1, n=5) of the same compound?
Answer: Its value is 0.

Question: What about the “TFS (tumor-free survivor)” value ([11]; 25 mg/kg iv qd × 1, n=5) of the same compound?
Answer: Its value is 4.

Question: What about the “TR (treatment-related death)” value ([11]; 25 mg/kg iv qd × 1, n=5) of the same compound?
Answer: Its value is 0.

Question: And the “group mean weight loss” value ([11]; 25 mg/kg qd×1)?
Answer: Its value is 10.2%.

Question: And the “transient CR” value ([11]; 25 mg/kg qd×1, n=5)?
Answer: Its value is 1.
